Results: patent US10377747B2, “2-arylamino pyridine, pyrimidine or triazine derivatives, preparation method and use thereof” (Wuxi Shuangliang Biotechnology Co., Ltd., priority 2015, dated 2019)

Columns and labels:
[1] = system: H1975 (non-small-cell lung cancer cells. EGFR L858K/T790M); assay: Tumor cell proliferation and growth inhibition analysis (Cell Titer-Glo, 72 h), H1975; type: cell-based; details: Homo sapiens, NCI-H1975; H1975 cells, 72 h exposure, Cell Titer-Glo; read-out: H1975 GI50
Text: (§1) […] cell proliferation assay is described as follows.
(§2) Tumor cell proliferation and growth inhibition analysis: H1975 (non-small-cell lung cancer cells. EGFR L858K/T790M) and A431 (human epidermal cancer cells, EGFR wild type) cells were commercially available from the ATCC cell bank. […] The growth medium for A431 cells was DMEM (GIBCO, 11995-065), 10% fetal bovine serum. The influence exerted by the compounds on the proliferation activity of tumor cells was detected by Cell Titer-Glo assay. Tumor cells were exposed to the treatment conditions for 72 h, and the cell density used in each experiment for each cell line was adjusted according to the 72 h cell growth curve. 10 concentration gradients and three-fold dilutions (0.5 nM-10 μM) were set for compounds to be tested, and 3 parallel controls were used for each concentration value.
(§3) Trypsin was used for digesting cells in the logrithmic growth phase to prepare cell suspension, which was counted by a Roche counter and appropriately diluted with complete medium to a final cell concentration of 1˜2×10^3 cell/mL. 384-well plates were seeded with cells, and 22.6 μL were seeded for each well. 3 parallels were set. The plates were incubated in an incubator with 5% CO2 at 37° C. overnight. The compounds were dissolved in DMSO to prepare […] mother liquor. […] 2 μL of compound solution was added into 18 μL of culture medium, and fully mixed. Then 2 μL of mixed solution of compound and culture medium was added into 18 μL of culture medium, and fully mixed. 2.4 μL of mixtures were added into a 384-well plates. […] After cultivation for 72 h, 24 μL of Cell Titer-Glo reagent was added. The contents were mixed on an orbital shaker for 2 min to induce cell lysis. The 384-well plates were incubated at room temperature for 10 min to stabilize the […] signal value. Data was read by Infinite® M1000 PRO (TECAN), and calculated with GraphPad Prism version 5.0. GI50 value was obtained by adjustment using a non-linear regression model of dose response curves.

[2] = system: A431 (human epidermal cancer cells, EGFR wild type); assay: Tumor cell proliferation and growth inhibition analysis (Cell Titer-Glo, 72 h), A431; type: cell-based; details: A-431, 72 h exposure
Text: as §1, §2, §3

GI50 [1] [nM] | GI50 [2] [nM] | SMILES
~36.5 | ~800 | C=CC(=O)Nc1cc(Nc2cc(-c3nn(C)c4ccsc34)ccn2)c(OC)cc1N(C)CCN(C)C [Example 41, N-(2-((2-(dimethylamino)ethylmethyl)amino)-4-methoxy-5-((4-(1-methyl-1H-thieno[3,2-c]pyrazol-3-yl)pyridin-2-yl)amino)phenyl)acrylamide]
33.5 | 625 | C=CC(=O)Nc1cc(Nc2nccc(-c3c(C)n(C)c4sc(C)cc34)n2)c(OC)cc1N(C)CCN(C)C [Example 31, N-(2-((2-(dimethylamino)ethyl)(methyl)amino)-4-methoxy-5-((4-(2,5,6-trimethyl-thieno[2,3-b]pyrrol-4-yl)pyrimidin-2-yl)amino)phenyl)acrylamide]
26.1 | 299 | C=CC(=O)Nc1cc(Nc2nccc(-c3noc4ccccc34)n2)c(OC(F)F)cc1N1CC(N(C)C)C1 [Example 8, N-(5-((4-(benzo[d]isoxazol-3-yl)pyrimidin-2-yl)amino)-4-(difluoromethoxy)-2-(3-(dimethylamino)azetidin-1-yl)phenyl)acylamide]
6.7 | 296 | C=CC(=O)Nc1cc(Nc2nccc(-c3cn(C)c4cccnc34)n2)c(OC(F)F)cc1N(C)CCN(C)C [Example 18]
184 | 724 | C=CC(=O)Nc1cc(Nc2nccc(-c3cn(C)c4cccnc34)n2)c(OC(F)F)cc1N1CCC[C@H]1CN(C)C [Example 22, (S)—N-(4-(difluoromethoxy)-2-(2-((dimethylamino)methyl)pyrrolidin-1-yl)-5-((4-(1-methyl-1H-pyrrolo[3,2-b]pyridin-3-yl)pyrimidin-2-yl)amino)phenyl)acrylamide]
296 | 1130 | C=CC(=O)Nc1cc(Nc2nccc(-c3nn(C)c4ccsc34)n2)c(OC(F)F)cc1N1CCN(C)CC1 [Example 26, N-(4-(difluoromethoxy)-5-((4-(1-methyl-1H-thieno[3,2-c]pyrazol-3-yl)pyrimidin-2-yl)amino)-2-(4-methylpiperazin-1-yl)phenyl)acrylamide]
31.2 | 1220 | C=CC(=O)Nc1cc(Nc2nccc(-c3noc4ccccc34)n2)c(OC)cc1N1CC2(CCCN2C)C1 [Example 5, N-(5-((4-(benzo[d]isoxazol-3-yl)pyrimidin-2-yl)amino)-4-methoxy-2-(5-methyl-2,5-diazaspiro[3.4]oct-2-yl)phenyl)acrylamide]
10.7 | 209 | C=CC(=O)Nc1cc(Nc2nccc(-c3nn(C)c4ccsc34)n2)c(OC)cc1N(C)CCN(C)C [Example 24, N-(2-((2-(dimethylamino)ethyl)(methyl)amino)-4-methoxy-5-((4-(1-methyl-1H-thieno[3,2-c]pyrazol-3-yl)pyrimidin-2-yl)amino)phenyl)acrylamide]
175 | 1560 | C=CC(=O)Nc1cc(Nc2nccc(-c3cn(C)c4cccnc34)n2)c(OC)cc1N1CCN(C)CC1 [Example 13, N-(4-methoxy-5-((4-(1-methyl-H-pyrrolo[3,2-b]pyridin-3-yl)pyrimidin-2-yl)amino)-2-(4-methylpiperazin-1-yl)phenyl)acrylamide]
8.3 | 144 | C=CC(=O)Nc1cc(Nc2ncnc(-c3cn(C)c4ncccc34)n2)c(OC(F)F)cc1N(C)CCN(C)C [Example 38, N-(4-(difluoromethoxy)-2-((2-(dimethylamino)ethyl)(methyl)amino)-5-((4-(1-methyl-1H-pyrrolo[2,3-b]pyridin-3-yl)-1,3,5-triazin-2-yl)amino)phenyl)acrylamide]
168 | 728 | C=CC(=O)Nc1cc(Nc2nccc(-c3noc4ccccc34)n2)c(OC)cc1N1CCN(C)CC1 [Example 2, N-(5-((4-(benzo[d]isoxazol-3-yl)pyrimidin-2-yl)amino)-4-methoxy-2-(4-methylpiperazin-1-yl)phenyl)acrylamide]
60.3 | > 1000 | C=CC(=O)Nc1cc(Nc2nccc(-c3nn(C)c4ccsc34)n2)c(OC(F)F)cc1N1CC2(CCCN2C)C1 [Example 29, N-(4-(difluoromethoxy)-5-((4-(1-methyl-1H-thieno[3,2-c]pyrazol-3-yl)pyrimidin-2-yl)amino)-2-(5-methyl-2,5-diazaspiro[3.4]oct-2-yl)phenyl)acrylamide]
6.8 | 10200 | C=CC(=O)Nc1cc(Nc2nccc(-c3cn(C)c4cccnc34)n2)c(OC)cc1N(C)CCN(C)C [Example 12, N-(2-((2-(dimethylamino)ethyl)(methyl)amino)-4-methoxy-5-((4-(1-methyl-1H-pyrrolo[3,2-b]pyridin-3-yl)pyrimidin-2-yl)amino)phenyl)acrylamide]
114 | 1120 | C=CC(=O)Nc1cc(Nc2ncnc(-c3cccc4cc[nH]c34)n2)c(OC)cc1N1CC2(CCCN2C)C1 [Example 36, N-(5-((4-(1H-indol-7-yl)-1,3,5-triazin-2-yl)amino)-4-methoxy-2-(5-methyl-2,5-diazaspiro[3.4]oct-2-yl)phenyl)acrylamide]
36 | 690 | C=CC(=O)Nc1cc(Nc2nccc(-c3noc4ccccc34)n2)c(OC(F)F)cc1N1CC2(CCCN2C)C1 [Example 11, N-(5-((4-(benzo[d]isoxazol-3-yl)pyrimidin-2-yl)amino)-4-(difluoromethoxy)-2-(5-methyl-2,5-diazaspiro[3.4]oct-2-yl)phenyl)acrylamide]
166 | 1440 | C=CC(=O)Nc1cc(Nc2nccc(-c3cn(C)c4cccnc34)n2)c(OC(F)F)cc1N1CCN(C)CC1 [Example 19, N-(4-(difluoromethoxy)-5-((4-(1-methyl-1H-pyrrolo[3,2-b]pyridin-3-yl)pyrimidin-2-yl)amino)-2-(4-methylpiperazin-1-yl)phenyl)acrylamide]
9.4 | 147 | C=CC(=O)Nc1cc(Nc2ncnc(-c3cccc4cc[nH]c34)n2)c(OC)cc1N(C)CCN(C)C [Example 32, N-(5-((4-(H-indol-7-yl)-1,3,5-triazin-2-yl)amino)-2-((2-(dimethylamino)ethyl)(methyl)amino)-4-methoxyphenyl)acylamide]
110 | 2440 | C=CC(=O)Nc1cc(Nc2nccc(-c3cn(C)c4cccnc34)n2)c(OC(F)F)cc1N1CC2(CCCN2C)C1 [Example 23, N-(4-(difluoromethoxy)-5-((4-(1-methyl-1H-pyrrolo[3,2-b]pyridin-3-yl)pyrimidin-2-yl)amino)-2-(5-methyl-2,5diazaspiro[3.4]oct-2-yl)phenyl)acryl amide]
